Numbers after ± are expanded uncertainties.
Columns and labels:
[1] = wn = mass fraction of the nth substance listed; details: 101 kPa, Liquid, w2 = 0; for viscosity: Capillary tube (Ostwald / Ubbelohde) method; for speed of sound: Frequency=3 MHz, Linear variable-path acoustic interferometer
[2] = mn = molality of the nth substance listed, in mol/kg; details: 101 kPa, Liquid, m2 = 0; for viscosity: Capillary tube (Ostwald / Ubbelohde) method; for speed of sound: Frequency=3 MHz, Linear variable-path acoustic interferometer

O [water] + O=C[C@H](O)[C@@H](O)[C@H](O)[C@H](O)CO
[1]
Details	speed of sound [m/s]	viscosity [mPa·s]
293.15 K	1483.6 ± 10	1.002 ± 0.1
298.15 K	–	0.8903 ± 0.089
303.15 K	1508.4 ± 10	0.7973 ± 0.08
308.15 K	–	0.719 ± 0.072
313.15 K	1526.8 ± 10	0.6526 ± 0.065
318.15 K	1533 ± 10	0.5972 ± 0.06

Details	mass density [kg/m3]
[1], 308.15 K, Pycnometric method	994.07 ± 6

O [water] + N[C@@H](Cc1c[nH]cn1)C(=O)O
[2]
Details	speed of sound [m/s]	viscosity [mPa·s]
293.15 K	1483.6 ± 10	1.002 ± 0.1
298.15 K	–	0.8903 ± 0.089
303.15 K	1508.4 ± 10	0.7973 ± 0.08
308.15 K	–	0.719 ± 0.072
313.15 K	1526.8 ± 10	0.6526 ± 0.065
318.15 K	1533 ± 10	0.5972 ± 0.06

Details	mass density [kg/m3]
[2], 308.15 K, Pycnometric method	994.07 ± 6

Reference: the NIST ThermoML archive (doi:10.1016/j.jct.2010.11.017)
